Reference: US20190247373A1, “METHODS FOR TREATING FIBROSIS” (CHILDREN'S HOSPITAL MEDICAL CENTER, priority 2016, published 2019)

How the values were obtained:
TGFα mice [1] = assay: Naltrexone therapy in TGFα-induced pulmonary fibrosis: body weight, lung weight, lung function (FlexiVent); assay type: in vivo; conditions: 80 mg/kg b.i.d. for three weeks, started after three weeks on Dox, vs vehicle
Description: (§1) FIG. 7: Naltrexone therapy attenuates body weight loss in pulmonary fibrosis. (A) Experimental schemata of naltrexone therapy study in vivo. Three groups of mice on Dox for three weeks were treated with either vehicle or naltrexone (80 mg/kg bodyweight, b.i.d) and then sacrificed after three weeks of treatment while continued on Dox. (B) The loss of body weight was attenuated with naltrexone therapy compared to vehicle treatment in TGFα mice. One-Way ANOVA (N=4−6/group; *P<0.05).
as §1, with “8:” for “7:”, “increase in lung weights” for “body weight loss”, “fibrosis.” for “fibrosis. (A) Experimental schemata of naltrexone therapy study in vivo.”, “Dox.” for “Dox. (B)”, “increase in lung weights” for “loss of body weight”
FIG. 9: Naltrexone therapy attenuates lung function decline in pulmonary fibrosis. Three groups of mice on Dox for three weeks were treated with either vehicle or naltrexone (80 mg/kg bodyweight, b.i.d) and then sacrificed after three weeks of treatment while continued on Dox. Decrease in the lung function (A,
Resistance; B, Compliance; C, Elastance) was attenuated with naltrexone therapy compared to vehicle treatment in TGFα mice. One-Way ANOVA (N=4−6/group; *P<0.05).
(§2) To probe mechanisms of EGFR-mediated lung remodeling, we generated transgenic mice in which TGFα was conditionally overexpressed in the lung epithelium using the CCSP rtTA promoter. When doxycycline (Dox) was administered, overexpression of TGFα in the adult mice (N=4−5 mice/group) caused progressive and extensive adventitial, interstitial, and subpleural fibrosis. Several histological features of fibrosis in the TGFα model were found in the pathologic lesions of IPF, including subpleural fibrosis radiating into the adjoining interstitium and the differentiation of myofibroblasts (FIG. 3). Physiologically, the mice developed progressive cachexia and lung-function decline with gene expression profiles similar to human IPF. The proenkephalin A (PENK) gene that codes for several opioid peptides was elevated in fibrotic lungs during TGFα-induced pulmonary fibrosis (FIG. 4).
Naltrexone therapy attenuates body weight loss in pulmonary fibrosis. […] Three groups of mice (N=4−6 mice/group) were on Dox for three weeks, and were then treated with either vehicle or naltrexone (80 mg/kg bodyweight, b.i.d) along with Dox for another three weeks; six weeks after being on DOX and three weeks after being treated with vehicle or naltrexone, the mice were sacrificed. The down arrow represents initiation of the vehicle or naltrexone treatment and the horizontal arrows indicate the duration of the vehicle or naltrexone treatment (three weeks while continuing to administer Dox).
Naltrexone therapy attenuates increase in lung weights in pulmonary fibrosis. Mice (N=4−6 mice/group) were on Dox for three weeks, and were then treated with either vehicle or naltrexone (80 mg/kg bodyweight, b.i.d) along with Dox for another three weeks; six weeks after being on DOX and three weeks after being treated with vehicle or naltrexone, the mice were sacrificed (See, e.g., FIG. 7A). […] In TGFα mice, increases in lung weight are due to pulmonary fibrosis.
Naltrexone therapy attenuates lung function decline in pulmonary fibrosis. […]

TGFα mice [2] = assay: Short-term naltrexone therapy in TGFα-induced pulmonary fibrosis: total lung RNA gene expression; assay type: in vivo; conditions: 10 mg/kg or 50 mg/kg b.i.d. for one week, started after two weeks on Dox; vs vehicle
Description: FIG. 6: Naltrexone therapy attenuates ECM and proliferative gene expression in pulmonary fibrosis. (A) Experimental schemata of naltrexone therapy study in vivo. Three groups of mice on Dox for two weeks were treated with either vehicle or naltrexone (10 mg/kg or 50mg/kg bodyweight, b.i.d) and sacrificed after a week of treatment while continued on Dox. Total lung RNA was analyzed for the expression of: (B) ECM genes (FN1, Col5α, and Col6α) and (C) proliferation genes (Aurka, IL-6, and Calcb). One-Way ANOVA (N=4/group; *P<0.05).
as §2
Naltrexone therapy attenuates ECM and proliferative gene expression in pulmonary fibrosis. […] Three groups of mice (N=4 mice/group) on Dox for two weeks were treated with either vehicle or naltrexone (10 mg/kg or 50 mg/kg bodyweight, b.i.d) and sacrificed after a week of treatment while continued on Dox. The down arrow represents initiation of the vehicle or drug treatment (at two weeks on Dox) and the horizontal arrows indicate the duration of vehicle or drug treatment (one week while continuing to administer Dox). […] The RNA from the three ECM genes decreased when treated with naltrexone. […] The RNA from the three proliferation genes decreased when treated with naltrexone.

IPF fibroblasts = assay: Gene expression in primary fibroblasts isolated from fibrotic lesions of IPF lungs; assay type: cell-based, human; conditions: naltrexone 10 μM, 24 hrs, vs vehicle
Description: FIG. 10: Naltrexone treatment attenuates ECM and proliferation gene expression in IPF fibroblasts. Expression of ECM genes (FN1, Col3α, and αSMA) and proliferation gene (Aurka) was attenuated in IPF fibroblasts treated with naltrexone (10 μM) compared to vehicle treatment for 24 hrs in IPF fibroblasts. Unpaired t-test (N=3/group; *P<0.05).
We treated primary fibroblasts isolated from fibrotic lesions of IPF lungs. […] These findings are consistent with a mechanism of action for opioid receptor inhibitors (e.g., naltrexone) that influences (e.g., decreases) ECM and proliferation.

[3] = treatment of idiopathic pulmonary fibrosis; cited from earlier work
mice = assay: Mouse model of bleomycin-induced pulmonary fibrosis (repetitive intradermal bleomycin); assay type: in vivo; conditions: bleomycin 6 units per kg intradermally, 5 days a week for 4 wks; vs saline-treated controls
Excerpt: FIG. 5: Mouse model of bleomycin-induced pulmonary fibrosis. Masson's trichrome-stained lung sections show extensive collagen deposition in mice treated intradermally with bleomycin (6 U/kg body weight; 5 days/week for 4 weeks) (B) compared to saline (A).
We developed an alternative mouse model of bleomycin-induced pulmonary fibrosis. For these experiments, we injected mice (N=5 mice/group) intradermally with bleomycin (6 units per kg body weight) for 5 days in a week for a total of 4 wks.

With `O=C1CC[C@@]2(O)[C@H]3Cc4ccc(O)c5c4[C@@]2(CCN3CC2CC2)[C@H]1O5` [naltrexone, 17-(cyclopropylmethyl)-4,5α-epoxy-3,14-dihydroxymorphinan-6-one] as the molecule, how does the “Dox-induced changes in lung function: Compliance” value (TGFα mice [1]; FlexiVent) read?
The value was “reversed”.

And the “Dox-induced changes in lung function: Elastance” value (TGFα mice [1]; FlexiVent)?
The value was “reversed”.

What about the “Dox-induced changes in lung function: Resistance” value (TGFα mice [1]; FlexiVent) of the same molecule?
The value was “reversed”.

What about the “Increase in lung weights” value (TGFα mice [1]) of the same molecule?
The value was “attenuated”.

What about the “Loss of body weight” value (TGFα mice [1]) of the same molecule?
The value was “attenuated”.

What about the “Total lung RNA expression of ECM gene Collagen alpha 1 V (Col5α)” value (TGFα mice [2]) of the same molecule?
Its value is “decreased”.

And the “Total lung RNA expression of ECM gene Collagen alpha 1 VI (Col6α)” value (TGFα mice [2])?
Its value is “decreased”.

What about the “Total lung RNA expression of ECM gene Fibronectin (FN1)” value (TGFα mice [2]) of the same molecule?
Its value is “decreased”.

What about the “Total lung RNA expression of proliferation gene Aurora kinase A (Aurka)” value (TGFα mice [2]) of the same molecule?
Its value is “decreased”.

And the “Total lung RNA expression of proliferation gene Calcitonin Related Polypeptide Beta (Calcb)” value (TGFα mice [2])?
Its value is “decreased”.

What about the “Total lung RNA expression of proliferation gene Interleuken 6 (IL-6)” value (TGFα mice [2]) of the same molecule?
The value was “decreased”.

What about the “Expression of ECM gene alpha smooth-muscle actin (αSMA)” value (IPF fibroblasts) of the same molecule?
The value was “inhibited”.

And the “Expression of ECM gene fibronectin 1 (FN1)” value (IPF fibroblasts)?
Its value is “inhibited”.

What about the “Expression of ECM gene procollagen 3α1 (Col3α)” value (IPF fibroblasts) of the same molecule?
The value was “inhibited”.

And the “Expression of proliferation gene Aurora kinase A (AURKA)” value (IPF fibroblasts)?
The value was “inhibited”.

With `COC(=O)c1ccc2c(c1)NC(=O)/C2=C(\Nc1ccc(N(C)C(=O)CN2CCN(C)CC2)cc1)c1ccccc1` [nintedanib] as the molecule, how does the Effect on mortality [3] read?
Its Effect on mortality is “neither pirfenidone nor nintedanib had any effect”.

Which Effect on mortality [3] does the source give for `Cc1ccc(=O)n(-c2ccccc2)c1` [pirfenidone] here?
The Effect on mortality was “neither pirfenidone nor nintedanib had any effect”.

What about the “Effect on respiratory symptoms” value [3] of the same molecule?
Its value is “no effect”.

For bleomycin, which “Increase in airway resistance” value (mice) is on record?
Its value is “greater than two-fold”.

And the “Increase in lung hydroxyproline levels” value (mice)?
The value was “greater than two-fold”.
